We go through four molecules from patent US11717561B2, “Multimodal antimicrobial therapy” (Longhorn Vaccines and Diagnostics, LLC, priority 2013, dated 2023).

Read-outs that look alike come from different tables or passages of the source.

Test [1] has as its system Mycobacterium smegmatis (MS). The experiment in a line: Effect of antibiotics and lysostaphin on growth/lysis of live M. smegmatis, % T at 650 nm. Type of test: cell-based.
Another test deals with ethanol-killed MTB. Type of test: cell-based, M. tuberculosis. Conditions: 375 μg/ml.
The mark [2] stands for this setting: Imp 1 mg/ml, Lysostaphin 0 units/ml.
The mark [3] stands for this setting: Rif 1 mg/ml, Lysostaphin 0 units/ml.

For `C[C@@H](O)[C@H]1C(=O)N2C(C(=O)O)=C(SCCNC=N)C[C@H]12.O` [Imp, Imipenem monohydrate], the “% Transmission (% T) change from baseline (negative equals growth, positive equals lysis/killing)” value in test [1] (Imipenem 1.0 mg/ml without lysostaphin) is listed as “+12.54 % T”. Moreover, in test [1] (setting [2]), the “% T 5 min” value is listed as 78.00%, the “% T 3 hours” value came to 82.67% and the “% T 20 hours” value came out at 90.54%.
As for `CO[C@H]1/C=C/O[C@@]2(C)Oc3c(C)c(O)c4c(O)c(c(/C=N/N5CCN(C)CC5)c(O)c4c3C2=O)NC(=O)/C(C)=C\C=C\[C@H](C)[C@H](O)[C@@H](C)[C@@H](O)[C@@H](C)[C@H](OC(C)=O)[C@@H]1C` [Rif, Rifampicin], in test [1] (setting [3]), the “% T 5 min” value stood at 79.25%, the “% T 3 hours” value was 75.27% and the “% T 20 hours” value was 71.79%.
For the molecule “Lysostaphin: natural lysostaphin from S. staphylolyticus (Sigma Cat L7386), a 27 kD glycylglycine endopeptidase”, in test [1] (Lysostaphin alone 200 units/ml), the “% T 5 min” value was found to be 77.34%, the “% T 3 hours” value came to 71.54% and the “% T 20 hours” value was determined as 45.47%.
In the case of “Recombinant Lysostaphin: recombinant simulans lysostaphin produced in E. coli (Sigma-Aldrich)”, in the test with ethanol-killed MTB (bacterial dilution 1:2), the “% T at 3 min” value is given as 86.268%, the “% T at 10 min” value was 91.59% and the “% T at 20 min” value is reported as 92.587%. For the same molecule, in the test on ethanol-killed MTB (bacterial dilution 1:4), the “% T at 3 min” value is 95.356%, the “% T at 10 min” value turned out to be 77.33% and the “% T at 20 min” value is reported as 92.651%. In the test with ethanol-killed MTB (bacterial dilution 1:8), the “% T at 3 min” value worked out at 97.308%, the “% T at 10 min” value came to 98.03% and the “% T at 20 min” value came out at 98.186%.
